In PubChem BioAssay AID248 (DTP/NCI, 2004):
Several values for one entry are separate records, joined by “and”; a condition that tells them apart may be missing. Equal values may be shown once. Inconclusive results and toxic doses are left out. Cut-off read from the data, not from the text of the source: active = T/C of 150% or more; inactive = T/C below 125%.

Test system: L1210 leukemia ip in BDF1 mice, survival T/C
Assay: NCI In Vivo Anticancer Drug Screen. Data for tumor model L1210 Leukemia (intraperitoneal) in B6D2F1 (BDF1) mice
Conditions: endpoint: mean survival time, higher = longer survival
Procedure, shortened: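 Antitumor effect is assessed in tumor-bearing animals. Survival in the compound arm is compared with a vehicle-dosed control arm and expressed as their quotient.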

[1] = dose: 100.0 mg/kg/injection, schedule: Q04DX003 (ip), vehicle: saline with Tween-80
[2] = dose: 200.0 mg/kg/injection, schedule: Q04DX003 (ip), vehicle: saline with Tween-80
[3] = dose: 400.0 mg/kg/injection, schedule: Q04DX003 (ip), vehicle: saline with Tween-80
[4] = dose: 100.0 mg/kg/injection, schedule: Q01DX001 (ip), vehicle: saline with Tween-80
[5] = dose: 200.0 mg/kg/injection, schedule: Q01DX001 (ip), vehicle: saline with Tween-80
[6] = dose: 100.0 mg/kg/injection, schedule: Q04DX002 (ip), vehicle: saline with Tween-80
[7] = dose: 200.0 mg/kg/injection, schedule: Q04DX002 (ip), vehicle: saline with Tween-80
[8] = dose: 400.0 mg/kg/injection, schedule: Q04DX002 (ip), vehicle: saline with Tween-80
[9] = dose: 100.0 mg/kg/injection, schedule: Q01DX009 (ip), vehicle: Klucel (hydroxypropylcellulose) (HPC)
[10] = dose: 200.0 mg/kg/injection, schedule: Q01DX009 (ip), vehicle: Klucel (hydroxypropylcellulose) (HPC)
[11] = dose: 400.0 mg/kg/injection, schedule: Q01DX009 (ip), vehicle: Klucel (hydroxypropylcellulose) (HPC)
[12] = dose: 100.0 mg/kg/injection, schedule: Q01DX009 (ip), vehicle: saline with Tween-80
[13] = dose: 200.0 mg/kg/injection, schedule: Q01DX009 (ip), vehicle: saline with Tween-80
[14] = dose: 400.0 mg/kg/injection, schedule: Q01DX009 (ip), vehicle: saline with Tween-80
[15] = dose: 25.0 mg/kg/injection, schedule: Q01DX009 (ip), vehicle: Klucel (hydroxypropylcellulose) (HPC)
[16] = dose: 50.0 mg/kg/injection, schedule: Q01DX009 (ip), vehicle: Klucel (hydroxypropylcellulose) (HPC)
[17] = dose: 100.0 mg/kg/injection, schedule: Q04DX003 (ip), vehicle: Klucel (hydroxypropylcellulose) (HPC)
[18] = dose: 200.0 mg/kg/injection, schedule: Q04DX003 (ip), vehicle: Klucel (hydroxypropylcellulose) (HPC)

Measured: T/C

O=C(CCCCC(=O)Nc1cc(C2=NCCN2)cc(C2N=CCN2)c1)Nc1cc(C2=NCCN2)cc(C2=NCCN2)c1 (stereo not given)
inactive: dose: 2.2 mg/kg/injection, schedule: Q01DX Z (ip), vehicle: methylcellulose (MC) 96 % of control | dose: 3.0 mg/kg/injection, schedule: Q01DX Z (ip), vehicle: methylcellulose (MC) 106 % of control | dose: 5.0 mg/kg/injection, schedule: Q01DX Z (ip), vehicle: carboxymethylcellulose (CMC) 120 % of control | dose: 5.0 mg/kg/injection, schedule: Q01DX Z (ip), vehicle: methylcellulose (MC) 101 % of control | dose: 9.0 mg/kg/injection, schedule: Q01DX Z (ip), vehicle: methylcellulose (MC) 87 % of control | dose: 10.0 mg/kg/injection, schedule: Q01DX Z (ip), vehicle: carboxymethylcellulose (CMC) 100 % of control | dose: 15.0 mg/kg/injection, schedule: Q01DX Z (ip), vehicle: carboxymethylcellulose (CMC) 94 % of control

CCC(CC)(CC#N)C1CCCCC1
inactive: dose: 50.0 mg/kg/injection, schedule: Q01DX001 (ip), vehicle: carboxymethylcellulose (CMC) 98 % of control | dose: 100.0 mg/kg/injection, schedule: Q01DX001 (ip), vehicle: carboxymethylcellulose (CMC) 104 % of control | dose: 200.0 mg/kg/injection, schedule: Q01DX001 (ip), vehicle: carboxymethylcellulose (CMC) 98 % of control | dose: 400.0 mg/kg/injection, schedule: Q01DX001 (ip), vehicle: carboxymethylcellulose (CMC) 104 % of control

Cc1cccc(CCl)c1
inactive: dose: 37.5 mg/kg/injection, schedule: Q01DX009 (ip), vehicle: saline sonified 106 % of control | dose: 75.0 mg/kg/injection, schedule: Q01DX009 (ip), vehicle: saline sonified 95 % of control | dose: 100.0 mg/kg/injection, schedule: Q04DX003 (ip), vehicle: saline 102 % of control | dose: 150.0 mg/kg/injection, schedule: Q01DX009 (ip), vehicle: saline sonified 98 % of control | dose: 200.0 mg/kg/injection, schedule: Q04DX003 (ip), vehicle: saline 100 % of control | dose: 400.0 mg/kg/injection, schedule: Q04DX003 (ip), vehicle: saline 93 % of control

CCC(=O)/C(=C\c1ccccc1Cl)C(C)=O
inactive: [1] 111 % of control | [2] 117 % of control | [3] 93 % of control

CCOC(=O)Nc1cc(NCCCCc2ccccc2)c(N)c(N)n1
inactive: [4] 101 % of control | [5] 102 % of control

C=CCNC(=S)N(CCC#N)C1CCCCC1
inactive: [6] 101 % of control | [7] 90 % of control | [8] 93 % of control

CC1(C(=O)O)CC1(C)C(=O)O (stereo not given)
inactive: [1] 103 % of control | [2] 96 % of control | [3] 92 % of control

CCOC(=O)C(C)(C)Oc1ccc(OC(C)(C)C(=O)OCC)cc1
inactive: [9] 93 % of control | [10] 100 % of control | [11] 102 % of control

NC(=O)NC(=O)/C=C/C(=O)O
inactive: dose: 50.0 mg/kg/injection, schedule: Q01DX009 (ip), vehicle: saline with Tween-80 100 % of control | [12] 94 % of control | [1] 92 % of control | [2] 90 % of control

CC(C)/C=N/NC(=O)CCCCCCCCC(=O)N/N=C/C(C)C
inactive: [4] 97 % of control | [12] 105 % of control and 106 % of control | [6] 97 % of control | [1] 111 % of control | [5] 92 % of control | [13] 100 % of control and 108 % of control | [7] 97 % of control | [2] 110 % of control | dose: 400.0 mg/kg/injection, schedule: Q01DX001 (ip), vehicle: saline with Tween-80 97 % of control | [14] 93 % of control and 108 % of control | [8] 94 % of control and 95 % of control | [3] 101 % of control

O=C(Nc1ncc([N+](=O)[O-])s1)c1cccc([N+](=O)[O-])c1
inactive: dose: 6.25 mg/kg/injection, schedule: Q01DX009 (ip), vehicle: Klucel (hydroxypropylcellulose) (HPC) 92 % of control | dose: 6.25 mg/kg/injection, schedule: Q04DX003 (ip), vehicle: Klucel (hydroxypropylcellulose) (HPC) 105 % of control | dose: 12.5 mg/kg/injection, schedule: Q01DX009 (ip), vehicle: Klucel (hydroxypropylcellulose) (HPC) 100 % of control | dose: 12.5 mg/kg/injection, schedule: Q04DX003 (ip), vehicle: Klucel (hydroxypropylcellulose) (HPC) 102 % of control | [15] 89 % of control | dose: 25.0 mg/kg/injection, schedule: Q04DX003 (ip), vehicle: Klucel (hydroxypropylcellulose) (HPC) 102 % of control

NC(=S)N/N=C/c1c(Cl)n(C(=O)c2ccccc2Cl)c2ccccc12
inactive: dose: 50.0 mg/kg/injection, schedule: Q04DX002 (ip), vehicle: Klucel (hydroxypropylcellulose) (HPC) 87 % of control | dose: 100.0 mg/kg/injection, schedule: Q04DX002 (ip), vehicle: Klucel (hydroxypropylcellulose) (HPC) 87 % of control | dose: 200.0 mg/kg/injection, schedule: Q04DX002 (ip), vehicle: Klucel (hydroxypropylcellulose) (HPC) 91 % of control

Clc1nc(Nc2ccccc2)c2ccccc2n1
inactive: [16] 111 % of control | [9] 95 % of control | [10] 107 % of control

c1ccc(C(c2ccccc2)(c2ccccc2)c2ccc(Nc3ccc(C(c4ccccc4)(c4ccccc4)c4ccccc4)cc3)cc2)cc1
inactive: dose: 25.6 mg/kg/injection, schedule: Q04DX002 (ip), vehicle: saline with Tween-80 87 % of control | dose: 64.0 mg/kg/injection, schedule: Q04DX002 (ip), vehicle: saline with Tween-80 91 % of control | dose: 160.0 mg/kg/injection, schedule: Q04DX002 (ip), vehicle: saline with Tween-80 97 % of control | [8] 97 % of control

COc1c(N(C)C)cc2c(c1C)OC(C)(C)C=C2
inactive: [1] 96 % of control | [2] 94 % of control | [3] 96 % of control

C(/C=N/N(c1ccccc1)c1ccccc1)=N\N(c1ccccc1)c1ccccc1
inactive: [9] 97 % of control | [17] 101 % of control | [10] 92 % of control | [18] 106 % of control | [11] 95 % of control | dose: 400.0 mg/kg/injection, schedule: Q04DX003 (ip), vehicle: Klucel (hydroxypropylcellulose) (HPC) 93 % of control

COC1=CC(=O)CC(C)C12Oc1c(Cl)c(OC)cc(OC)c1C2=O (stereo not given)
inactive: dose: 5.0 mg/kg/injection, schedule: Q## X008 (ip), vehicle: other 103 % of control | dose: 10.0 mg/kg/injection, schedule: Q## X008 (ip), vehicle: other 91 % of control | dose: 20.0 mg/kg/injection, schedule: Q## X008 (ip), vehicle: other 94 % of control | dose: 40.0 mg/kg/injection, schedule: Q## X008 (ip), vehicle: other 91 % of control | dose: 50.0 mg/kg/injection, schedule: Q## X024 (ip), vehicle: other 111 % of control | dose: 80.0 mg/kg/injection, schedule: Q## X008 (ip), vehicle: other 88 % of control | dose: 100.0 mg/kg/injection, schedule: Q## X024 (ip), vehicle: other 100 % of control | dose: 200.0 mg/kg/injection, schedule: Q## X024 (ip), vehicle: other 100 % of control | dose: 400.0 mg/kg/injection, schedule: Q## X024 (ip), vehicle: other 95 % of control | dose: 800.0 mg/kg/injection, schedule: Q## X024 (ip), vehicle: other 100 % of control

O=C(O)c1c(Cl)c(Cl)c(Cl)c(Cl)c1Cl
inactive: [12] 103 % of control | [13] 106 % of control | [14] 112 % of control

C[n+]1ccc(C(=O)c2ccccc2)cc1
inactive: dose: 75.0 mg/kg/injection, schedule: Q01DX001 (ip), vehicle: saline 94 % of control | dose: 150.0 mg/kg/injection, schedule: Q01DX001 (ip), vehicle: saline 101 % of control

C#[C][Sn]([CH2]CCC)([CH2]CCC)[CH2]CCC
inactive: dose: 0.39 mg/kg/injection, schedule: Q01DX009 (ip), vehicle: saline with Tween-80 109 % of control | dose: 0.78 mg/kg/injection, schedule: Q01DX009 (ip), vehicle: saline with Tween-80 94 % of control | dose: 1.56 mg/kg/injection, schedule: Q01DX009 (ip), vehicle: saline with Tween-80 95 % of control and 98 % of control

N#CCN1CCCN(CC#N)C1
inactive: [15] 96 % of control | [16] 115 % of control | [9] 88 % of control and 91 % of control | [17] 92 % of control | [18] 103 % of control
